Experimental data from patent publication US6831061B2, “Apicidin-derivatives, their synthetic methods and anti-tumor compositions containing them” (priority 2000, dated 2004).
pIC50: −log10 of the molar value. Values after ≈ are worked out from the molar mass of the structure shown. Like-named read-outs stand apart in the source and are kept apart here.

Columns and labels:
[1] = tested on: v-ras-transformed NIH3T3 (mouse fibroblast cell line); assay: Cell growth inhibition assay (SRB assay), v-ras-transformed NIH3T3; assay type: cell-based; settings: NIH3T3, 48 h
Description: (§1) HeLa (human cervical cancer cell line), v-ras-transformed NIH3T3 (mouse fibroblast cell line), Colon 3.1-M26 (mouse colon cancer cell line), MG63 (human osteosarcoma cell line) and MCF-7 (human breast cancer cell line) cells were cultured in DMEM (Dulbecco's modified Eagle's medium, produced by Life Technologies, Inc.). A2058 (human melanoma cell line), AGS (human gastric adenocarcinoma cell line), HBL-100 (human breast cancer cell line), CCD-18Co (human normal colon cell line) and LL86 (human normal lung cell line) cells were cultured in RPMI 1640 (Life Technologies, Inc.) in the presence of 10% FBS and 1% penicillin/streptomycin.
(§2) A cell growth inhibition assay according to sulforhodamine B (SRB) protein dye assay was carried out to examine the effects of apicidin derivative prepared in the Examples on mouse and human cancer cells. The cells were placed in wells and during cultivation were treated with 0.01, 0.1, 0.5, 1, and 2 μg/mL of apicidin, SD9801, SD9802, SD9803, the compound of Example 1, the compound of Example 2 and the compound of Example 3.
(§3) After 48 hours of cultivation, the media were removed from the well plates. The cells were fixed with 1 mL of 10% trichloroacetic acid at 4° C. washed 5 times with distilled water and completely dried in the air. The wells were treated with 0.4% SRB solution and died for 30 minutes at an ambient temperature. Subsequently, the wells were washed 5 times with distilled water and dried for 18 hours. To the respective wells, Tris-HCl (1 mL, 10 mM) was added to dissolve the proteins bonded to SRB. The contents of each well were removed and measured for their absorption at 490 nm.

[2] = tested on: Histone deacetylase purified from HeLa cells; assay: In vitro histone deacetylation assay; assay type: biochemical, human; settings: [3H]acetyl histone substrate, 37° C., 20 minutes; read-out: Histone deacetylase inhibition IC50
Description: Histone deacetylase was purified from HeLa cells. The activity of histone deacetylase was measured according to a method known in the art—See, e.g., Inoue, A. et al., Biochem. Biophys. […] Here, histone with [^3H]acetyl group labeled with radio-active materials was used as a substrate for measurement of activity of histone deacetylase. After incubation at 37° C. for 20 minutes, [^3H]acetic acid released into medium was extracted with ethylacetate and quantified using a liquid radiation detection method.

[3] = tested on: AGS (human gastric adenocarcinoma cell line); assay: Cell growth inhibition assay (SRB assay), AGS; assay type: cell-based; settings: 48 h
Description: as §1, §2, §3

[4] = tested on: Colon 3.1-M26 (mouse colon cancer cell line); assay: Cell growth inhibition assay (SRB assay), Colon 3.1-M26; assay type: cell-based; settings: for IC50: Mus musculus, 48 h
Description: as §1, §2, §3

[5] = tested on: CCD-18Co (human normal colon cell line); assay: Cell growth inhibition assay (SRB assay), CCD-18Co; assay type: cell-based; settings: for Growth inhibition IC50 / IC50: CCD-18Co normal cells, SRB assay; for Growth inhibition IC50: 48 hours; for IC50: Homo sapiens, CCD-18Co, 48 h
Description: as §1, §2, §3

[6] = tested on: A2058 (human melanoma cell line); assay: Cell growth inhibition assay (SRB assay), A2058; assay type: cell-based; settings: for IC50: Homo sapiens, A2058, 48 h, read-out: Growth inhibition IC50, A2058 cancer cells, SRB assay, 48 hours
Description: as §1, §2, §3

[7] = tested on: HBL-100 (human breast cancer cell line); assay: Cell growth inhibition assay (SRB assay), HBL-100; assay type: cell-based; settings: HBL-100, 48 h
Description: as §1, §2, §3

[8] = tested on: LL86 (human normal lung cell line); assay: Cell growth inhibition assay (SRB assay), LL86; assay type: cell-based
Description: as §1, §2, §3

[9] = tested on: HeLa (human cervical cancer cell line); assay: Cell growth inhibition assay (SRB assay), HeLa; assay type: cell-based; settings: 48 h, read-out: Growth inhibition IC50, HeLa cancer cells, SRB assay, 48 hours
Description: as §1, §2
(§4) After 48 hours of cultivation, the media were removed from the well plates. The cells were fixed with 1 mL of 10% trichloroacetic acid at 4° C. washed 5 times with distilled water and completely dried in the air. […] The contents of each well were removed and measured for their absorption at 490 nm.

[10] = tested on: MG63 (human osteosarcoma cell line); assay: Cell growth inhibition assay (SRB assay), MG63; assay type: cell-based; settings: MG-63, 48 h, read-out: Growth inhibition IC50, MG63 cancer cells, SRB assay, 48 hours
Description: as §1, §2, §4

[11] = tested on: MCF-7 (human breast cancer cell line); assay: Cell growth inhibition assay (SRB assay), MCF-7; assay type: cell-based; settings: MCF7, 48 h, read-out: Growth inhibition IC50, MCF-7 cancer cells, SRB assay, 48 hours
Description: as §1, §2, §4

[12] = read-out: Growth inhibition IC50, v-ras-transformed NIH3T3 cancer cells, SRB assay, 48 hours
[13] = read-out: Growth inhibition IC50, AGS cancer cells, SRB assay, 48 hours
[14] = Colon 3.1-M26 cancer cells, SRB assay, 48 hours
[15] = read-out: Growth inhibition IC50, Colon 3.1-M26 cancer cells, SRB assay, 48 hours
[16] = read-out: Growth inhibition IC50, HBL-100 cancer cells, SRB assay, 48 hours
[17] = v-ras-transformed NIH3T3 cancer cells, SRB assay, 48 hours, read-out: Growth inhibition IC50
[18] = 48 h, read-out: Growth inhibition IC50, LL86 normal cells, SRB assay, 48 hours
[19] = LL86 normal cells, SRB assay, 48 hours, read-out: Growth inhibition IC50
[20] = AGS cancer cells, SRB assay, 48 hours, read-out: Growth inhibition IC50
[21] = Colon 3.1-M26 cancer cells, SRB assay, 48 hours, read-out: Growth inhibition IC50
[22] = HBL-100 cancer cells, SRB assay, 48 hours, read-out: Growth inhibition IC50

SMILES | IC50 [1, 12] | pIC50 [2] | IC50 [3, 13] | Growth inhibition IC50 [4, 14] | IC50 [4, 15] | times higher safety against normal cell growth than the parent compound, apicidin ([5]; normal cell growth) | Growth inhibition IC50 ([6]; A2058 cancer cells, SRB assay, 48 hours) | IC50 [6] | IC50 [7, 16] | IC50 [1, 17] | IC50 [8, 18] | IC50 [8, 19] | IC50 [3, 20] | IC50 [4, 21] | Growth inhibition IC50 [5] | IC50 [5] | IC50 [7, 22] | IC50 [9] | IC50 [10] | IC50 [11]
CCC(CCCCCC1NC(=O)C2CCCCN2C(=O)C(C(C)CC)NC(=O)C(Cc2cn(OC)c3ccccc23)NC1=O)=NNC(N)=O (stereo not shown) [Example 1, Semicarbazone Derivative of Apicidin] | < 0.2 µg/mL | 9.00 | < 0.2 µg/mL | 0.20 µg/mL | 0.2 to 2.07 µg/mL (≈ 0.294 to 3.04 µM) | about 5 times | 0.34 µg/mL | 0.2 to 2.07 µg/mL (≈ 0.294 to 3.04 µM) | < 0.2 µg/mL | – | – | – | – | – | – | – | – | – | – | –
CCC(CCCCCC1NC(=O)C2CCCCN2C(=O)C(C(C)CC)NC(=O)C(Cc2cn(OC)c3ccccc23)NC1=O)=NN (stereo not shown) [Example 2, Hydrazone Derivative of Apicidin] | – | 8.52 | – | 0.20 µg/mL | – | – | – | – | – | < 0.2 µg/mL | 4.27 to 18.2 µg/mL (≈ 6.69 to 28.6 µM) | 16.3 µg/mL (≈ 25.6 µM) | < 0.2 µg/mL | 0.2 to 2.07 µg/mL (≈ 0.314 to 3.25 µM) | 8.51 µg/mL | 4.27 to 18.2 µg/mL (≈ 6.69 to 28.6 µM) | < 0.2 µg/mL | – | – | –
CCC(CCCCCC1NC(=O)C2CCCCN2C(=O)C(C(C)CC)NC(=O)C(Cc2cn(OC)c3ccccc23)NC1=O)=NNC(C)(C)C (stereo not shown) [Example 3, tert-butylhydrazone Derivative of Apicidin] | – | 7.60 | – | 0.21 µg/mL | – | – | – | – | – | < 0.2 µg/mL | 4.27 to 18.2 µg/mL (≈ 6.15 to 26.3 µM) | 14.8 µg/mL (≈ 21.3 µM) | < 0.2 µg/mL | 0.2 to 2.07 µg/mL (≈ 0.288 to 2.98 µM) | 4.27 µg/mL | 4.27 to 18.2 µg/mL (≈ 6.15 to 26.3 µM) | < 0.2 µg/mL | – | – | –
CCC(=O)CCCCC[C@@H]1NC(=O)[C@H]2CCCCN2C(=O)[C@H]([C@@H](C)CC)NC(=O)[C@H](Cc2cn(OC)c3ccccc23)NC1=O [Apicidin, apicidin] | 0.18 µg/mL (≈ 0.289 µM) | – | 0.13 µg/mL (≈ 0.208 µM) | – | 0.17 µg/mL (≈ 0.273 µM) | – | – | 0.55 µg/mL (≈ 0.882 µM) | 0.57 µg/mL (≈ 0.914 µM) | – | 4.25 µg/mL (≈ 6.81 µM) | – | – | – | – | 2.36 µg/mL (≈ 3.78 µM) | – | 0.51 µg/mL (≈ 0.818 µM) | 1.88 µg/mL (≈ 3.01 µM) | 1.17 µg/mL (≈ 1.88 µM)
CCC(CCCCCC1NC(=O)C2CCCCN2C(=O)C(C(C)CC)NC(=O)C(Cc2cn(OC)c3ccccc23)NC1=O)=NNC(=O)NN (stereo not shown) [Example 4, Carbohydrazone Derivative of Apicidin] | – | 7.41 | – | – | – | – | – | – | – | – | – | – | – | – | – | – | – | – | – | –
